Here are results for twelve compounds from ChEMBL document CHEMBL4602605, “Fluoroquinolones structural and medicinal developments (2013-2018): Where are we now?” (Bioorg Med Chem, 2019).

Experiment [1] deals with Candida albicans. The experiment is described as follows: Antifungal activity against Candida albicans after overnight incubation by agar well diffusion method. The experiment is classed as functional. (In general: A growth-free zone around the sample is the usual read-out of agar diffusion tests.)
Experiment [2] concerns Aspergillus clavatus. Nature of the experiment: Antifungal activity against Aspergillus clavatus after overnight incubation by agar well diffusion method. Format: functional.
The test system of experiment [3] is PC-3. The experiment is described as follows: Growth inhibition of human PC3 cells by MTT assay. The experiment is classed as functional, cell-based. (Tetrazolium assays rely on reduction of a dye to a coloured formazan, in cell work by metabolically active cells.)
In experiment [4] the test system is Mycolicibacterium smegmatis. The experiment is described as follows: Antimicrobial activity against Mycobacterium smegmatis incubated for 30 to 32 hrs by spectrophotometry based assay. Format: functional.
The subject of experiment [5] is Enterococcus faecalis. The experiment is described as follows: Antimicrobial activity against Enterococcus faecalis ATCC 29212 incubated for 24 hrs by serial dilution method. Format: functional. As to conditions: ATCC 29212, 24 h.
Experiment [6] concerns PANC-1. Nature of the experiment: Growth inhibition of human PANC1 cells at 10 uM incubated for 48 hrs by MTT assay. Format: functional. The following applies: PANC-1, 48 h, read-out: GI.
Experiment [7] relates to Staphylococcus aureus. The experiment is described as follows: Antimicrobial activity against methicillin-resistant Staphylococcus aureus ATCC 33591 incubated for 24 hrs by serial dilution method. The experiment is classed as functional. The following applies: ATCC 33591, 24 h.
Experiment [8] deals with Klebsiella pneumoniae. The experiment is described as follows: Antimicrobial activity against Klebsiella pneumoniae ATCC 35657 incubated for 24 hrs by serial dilution method. The following applies: ATCC 35657, 24 h. The experiment is classed as functional.
The test system of experiment [9] is HCT-116. The experiment is described as follows: Growth inhibition of human HCT116 cells at 10 uM incubated for 48 hrs by MTT assay relative to control. Format: functional. The following applies: HCT-116, 48 h, read-out: GI.
In experiment [10] the test system is Escherichia coli. The experiment is described as follows: Antimicrobial activity against Escherichia coli ATCC 35218 incubated for 24 hrs by serial dilution method. Format: functional. The following applies: ATCC 35218, 24 h.
Experiment [11] concerns HeLa. Nature of the experiment: Growth inhibition of human HeLa cells at 10 uM incubated for 48 hrs by MTT assay relative to control. The experiment is classed as functional. The following applies: read-out: GI.
The test system of experiment [12] is Moraxella catarrhalis. Nature of the experiment: Antimicrobial activity against Moraxella catarrhalis ATCC 25238 incubated for 24 hrs by serial dilution method. The experiment is classed as functional. The following applies: ATCC 25238, 24 h.
In experiment [13] the test system is A549. Nature of the experiment: Growth inhibition of human A549 cells at 10 uM incubated for 48 hrs by MTT assay relative to control. Format: functional. As to conditions: A549, 48 h, read-out: GI.
Experiment [14] relates to Staphylococcus aureus. The experiment is described as follows: Antimicrobial activity against methicillin-susceptible Staphylococcus aureus ATCC 29213 incubated for 24 hrs by serial dilution method. Format: functional. The following applies: ATCC 29213, 24 h.
Experiment [15] concerns Bacillus cereus. The experiment is described as follows: Antimicrobial activity against Bacillus cereus 709 Roma incubated for 18 to 24 hrs by microbroth dilution method. The experiment is classed as functional. For orientation: Dilution methods test growth across graded concentrations, often in twofold steps.
Experiment [16] has as its system Pseudomonas aeruginosa. Nature of the experiment: Antimicrobial activity against Pseudomonas aeruginosa ATCC 43288 incubated for 18 to 24 hrs by microbroth dilution method. The experiment is classed as functional.
Experiment [17] concerns Mycolicibacterium smegmatis. The experiment is described as follows: Antimicrobial activity against Mycobacterium smegmatis ATCC 607 incubated for 48 to 72 hrs by microbroth dilution method. The experiment is classed as functional.
For experiment [18], the system named is Escherichia coli. The experiment is described as follows: Antimicrobial activity against Escherichia coli ATCC 25922 incubated for 18 to 24 hrs by microbroth dilution method. Format: functional.
Experiment [19] concerns Enterococcus faecalis. Nature of the experiment: Antimicrobial activity against Enterococcus faecalis ATCC 29212 incubated for 18 to 24 hrs by microbroth dilution method. The experiment is classed as functional.
For experiment [20], the system named is Staphylococcus aureus. The experiment is described as follows: Antimicrobial activity against Staphylococcus aureus ATCC 25923 incubated for 18 to 24 hrs by microbroth dilution method. Format: functional.
The test system of experiment [21] is Escherichia coli. The experiment is described as follows: Antimicrobial activity against penicillin-resistant Escherichia coli at < 1 ug/ml relative to control. Format: functional.
The subject of experiment [22] is Mycolicibacter terrae. Nature of the experiment: Antimicrobial activity against Mycobacterium terrae incubated for 10 days by microbroth dilution method. Format: functional. The following applies: 240 h.
Experiment [23] has as its system Mycobacterium tuberculosis. Nature of the experiment: Antimicrobial activity against Mycobacterium tuberculosis H37Rv incubated for 10 days by microbroth dilution method. Format: functional. As to conditions: 240 h.
Experiment [24] has as its system Mycobacterium avium. The experiment is described as follows: Antimicrobial activity against Mycobacterium avium incubated for 10 days by microbroth dilution method. The experiment is classed as functional. The following applies: 240 h.
Experiment [25] relates to Escherichia coli. Nature of the experiment: Antimicrobial activity against Escherichia coli ATCC 25922 by CLSI method. Format: functional.
Experiment [26] relates to Staphylococcus aureus. The experiment is described as follows: Antimicrobial activity against Staphylococcus aureus ATCC 25923 by CLSI method. Format: functional.

Converted amounts (≈) assume the structure as drawn.

As for `COc1c(N2CCN(C)CC2)c(F)cc2c(=O)c(C(=O)N/N=C\c3cccc(C)c3)cn(C3CC3)c12`, the “inhibition zone (IZ)” value in experiment [1] was 10 mm; in [2], 11 mm. In experiment [3], the IC50 was determined as 10 µg/mL (≈ 20.3 µM). This compound also displayed a minimal inhibitory concentration (MIC) in [4] of 42.5 µM (≈ 20.9 µg/mL).

With `CCCN(CCC)Cc1cn(-c2cc3c(cc2F)c(=O)c(C(=O)NO)cn3C2CC2)nn1`, the MIC in experiment [5] is 64 µg/mL (≈ 145 µM); in experiment [7], more than 64 µg/mL; in [8] it was 32 µg/mL (≈ 72.3 µM); in [10] it was 64 µg/mL (≈ 145 µM); in experiment [12], 64 µg/mL (≈ 145 µM); in [14], 64 µg/mL (≈ 145 µM). Besides, the inhibition of growth at 10 µM in experiment [6] was 15%; in experiment [9] it was 10%; in experiment [11], 15%; in [13] it was 20%.

On to `CCn1cc(C(=O)O)c(=O)c2cc(F)c(N3CCN(Cn4nc(CN5CCN(c6ccc([N+](=O)[O-])cc6)CC5)n(Cc5ccccc5)c4=O)CC3)cc21`, for which the MIC in [15] is 0.24 to 0.25 µg/mL (≈ 0.331 to 0.344 µM); in [16], 0.24 to 0.5 µg/mL (≈ 0.331 to 0.689 µM); in experiment [17], 0.244 to 0.99 µg/mL (≈ 0.336 to 1.36 µM); in experiment [18] it was 0.25 to 0.99 µg/mL (≈ 0.344 to 1.36 µM); in experiment [19], 0.48 to 0.5 µg/mL (≈ 0.661 to 0.689 µM); in experiment [20], 0.24 to 0.25 µg/mL (≈ 0.331 to 0.344 µM).

On to `COc1c(N2CCN(C)CC2)c(F)cc2c(=O)c(C(=O)N/N=C\c3c(Cl)cccc3Cl)cn(C3CC3)c12`, for which the “inhibition zone (IZ)” value in experiment [1] came out at 9 mm. For the same compound, the IC50 in [3] worked out at 4.9 µg/mL (≈ 8.97 µM). The compound also gave an MIC in [4] of 27 µM (≈ 14.8 µg/mL).

As for `COc1cc(/C=N\NC(=O)c2cn(C3CC3)c3c(OC)c(N4CCN(C)CC4)c(F)cc3c2=O)cc(OC)c1OC`, the “inhibition zone (IZ)” value in [1] and in experiment [2] was 13 mm each time. The same compound yielded an IC50 in experiment [3] of 8.5 µg/mL (≈ 15 µM). This compound gave an MIC in [4] of 81.2 µM (≈ 46.1 µg/mL).

`CCCCCCCCOC(=O)c1cn(C2CC2)c2cc(N3CCNCC3)c(F)cc2c1=O`: in experiment [21], the “inhibition (INH)” value is more than 60%.

For `CCn1cc(C(=O)O)c(=O)c2cc(F)c(-c3cc4cc(Br)ccc4oc3=O)cc21`, the minimum inhibitory concentration (MIC) in experiment [22], in [23] and in experiment [24] was 6.2 µg/mL (≈ 13.5 µM) each time.

`COc1c(N2CCN(C)CC2)c(F)cc2c(=O)c(C(=O)N/N=C\c3cccc(O)c3)cn(C3CC3)c12`: it took 3.4 µg/mL (≈ 6.89 µM) to reach half-maximal inhibition in experiment [3] (IC50). In experiment [4], the minimum inhibitory concentration (MIC) was 27.2 µM (≈ 13.4 µg/mL).

`O=C(NO)c1cn(C2CC2)c2cc(-n3cc(CN4CCCCC4)nn3)c(F)cc2c1=O`: the MIC is more than 64 µg/mL in experiment [5]; more than 64 µg/mL in experiment [7]; 64 µg/mL (≈ 150 µM) in [8]; 64 µg/mL (≈ 150 µM) in experiment [10]; 64 µg/mL (≈ 150 µM) in experiment [12]; more than 64 µg/mL in [14]. Besides, the inhibition of growth at 10 µM in experiment [6] was 10%; in experiment [9], 20%; in experiment [11] it was 5%; in experiment [13], 10%.

For `O=C(NO)c1cn(C2CC2)c2cc(-n3cc(CN4CCOCC4)nn3)c(F)cc2c1=O`, the MIC in [5] is more than 64 µg/mL; in experiment [7], more than 64 µg/mL; in experiment [8], 4 µg/mL (≈ 9.34 µM); in experiment [10], 8 µg/mL (≈ 18.7 µM); in experiment [12] it was 8 µg/mL (≈ 18.7 µM); in experiment [14], more than 64 µg/mL. Besides, the inhibition of growth at 10 µM in experiment [6] came out at 13%; in experiment [9], 15%; in experiment [11] it was 20%; in [13], 15%.

As for `CC(=O)N1CCN(c2cc3c(cc2F)c(=O)c(C(=O)O)cn3C2CC2)CC1`, the minimum inhibitory concentration (MIC) in experiment [25] and in experiment [26] was 0.5 µg/mL (≈ 1.34 µM) each time.

`CCN1CCN(c2cc3c(cc2F)c(=O)c(C(=O)O)cn3C2CC2)CC1` [ENROFLOXACIN]: the minimum inhibitory concentration (MIC) in experiment [25] was determined as 0.031 µg/mL (≈ 0.0863 µM); in experiment [26], 2 µg/mL (≈ 5.56 µM).

One may read the IC50 as the point on the concentration scale where inhibition reaches its midpoint. High values mean lower potency, low ones higher potency. By MIC is commonly meant the lowest concentration found to suppress growth.
